{"source": "patent US11358863B2", "about": "“Method and composition of humidity-controlled generation of chlorine dioxide in polymers and superabsorbent hydrogels” (priority 2017, dated 2022)", "assay_type_in_all_cases": "cell-based", "key": {"[1]": {"test_system": "spores of Bacillus cereus", "experiment": "Microbiological validation of aqueous ClO2 using Bacillus cereus spores, serial dilutions and plate-counting on Nutrient Agar", "conditions": "dilutions 1-10^-6, NA plates 18 hours at 37° C."}, "[2]": {"test_system": "mold on cotton-based parachute sleeve", "experiment": "Mold growth on moldy cotton parachute sleeve sample on Potato Dextrose Agar after ClO2 treatment", "conditions": "10 mL of 100 ppm ClO2 solution, mixed intermittently over 20 minutes, quenched; stored at 30° C. for 5 days", "description": "Dry reagents of HMS and chlorite ion were added to distilled de-ionized water to produce chlorine dioxide. A cotton-based parachute sleeve that is characteristically used to hold and release parachutes during jumps and to store folded parachutes after jumps was chosen for use. […] Approximately 1×1 in^2 was cut from a parachute sleeve and placed using sterile forceps into a Petri dish of sterile Potato Dextrose Agar (PDA) with a few drops of sterile water. […] A 1×1 in^2 sample was removed from the moldy dish using a sterile technique and placed in a new sterile Petri dish of PDA with sterile water. A second 1×1 in^2 sample was placed in a plastic pouch with 10 mL of 100 ppm ClO2 solution and mixed in a paddle-blender for 2 minutes intermittently over a 20 minute period. At 20 min, reductant was added to quench any excess ClO2, and the sample was placed on a fresh Petri dish of PDA. Both samples were stored at 30° C. for 5 days."}, "[3]": {"test_system": "Geobacillus stearothermophilus 7953 spores", "experiment": "Clamshell package with chlorite/HMS absorbent pad in humid desiccator: autoclave sterility test strip", "conditions": "gaseous ClO2 about 25-50 ppm after 24 hours, 89% RH, 35° C.", "excerpt": "(§1) We tested a clamshell package made of plastic (commonly PLA or polyethylene terephthalate (PET)), typical of the packaging used to contain fresh produce or berries as sold in supermarkets, convenience stores, and other grocery stores. These clamshell packages have vent holes that allow the free-flow exchange of gases between the interior of the package and its surrounding environment.\nA beaker with two ClO2 indicator test strips (high range, 0-500 ppm), one Geobacillus stearothermophilus 7953 autoclave sterility test strip and one Bacillus atrophaeus ethylene oxide gas sterility test strip, was placed inside the clamshell package. A piece of blue material comprising non-woven textiles and superabsorbent hydrogel, characteristic of a common disposable diaper, was cut into a 3×1 inch rectangle. Dry sodium chlorite and dry HMS were placed on spatially separate regions of the material. The blue absorbent pad was sprayed with a small amount of water, and then folded in half. The entire clamshell package (containing the indicator strips, microbial test strips, and blue pad with reactive reagents) was placed inside a […] The entire desiccator assembly, containing the salt solution in the bottom and the clamshell package above the solution on a perforated platform, was placed inside an incubator at 35° C., which re-equilibrated and increased RH to 89%. […]"}, "[4]": {"test_system": "Bacillus atrophaeus spores", "experiment": "Clamshell package with chlorite/HMS absorbent pad in humid desiccator: ethylene oxide gas sterility test strip", "conditions": "gaseous ClO2 about 25-50 ppm after 24 hours, 89% RH, 35° C.", "excerpt": "as §1\nA beaker with two ClO2 indicator test strips (high range, 0-500 ppm), one Geobacillus stearothermophilus 7953 autoclave sterility test strip and one Bacillus atrophaeus ethylene oxide gas sterility test strip, was placed inside the clamshell package. A piece of blue material comprising non-woven textiles and superabsorbent hydrogel, characteristic of a common disposable diaper, was cut into a 3×1 inch rectangle. Dry sodium chlorite and dry HMS were placed on spatially separate regions of the material. The blue absorbent pad was sprayed with a small amount of water, and then folded in half. The entire clamshell package (containing the indicator strips, microbial test strips, and blue pad with reactive reagents) was placed inside a desiccator charged with […] The entire desiccator assembly, containing the salt solution in the bottom and the clamshell package above the solution on a perforated platform, was placed inside an incubator at 35° C., which re-equilibrated and increased RH to 89%. […]"}}}
{"smiles": "[O][Cl+][O-]", "note": "[ClO2, chlorine dioxide]", "values": [{"measurement": "growth of B. cereus from inoculated protective garment fabric", "setting": "[1]; 10 microliter inoculum on 1×1 in^2 fabric, 100 ppm ClO2 solution, paddle-blender 15 min, quenched", "value": "no discernible growth"}, {"measurement": "colonies on NA plates (plate-counts)", "setting": "[1]; B. cereus spore inoculum in 10 mL of 100 ppm aqueous ClO2 solution, paddle-stomacher 15 min, quenched with reductant", "value": "no discernible colonies"}, {"measurement": "mold growth on cotton sleeve sample and PDA", "setting": "[2]", "value": "no signs of mold growth"}, {"measurement": "microbial growth of G. stearothermophilus indicator test strip", "setting": "[3]", "value": "negative for microbial growth"}, {"measurement": "microbial growth of B. atrophaeus indicator test strip", "setting": "[4]", "value": "negative for microbial growth"}]}
